Source: PubChem BioAssay (NCI)
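In this assay, cells in 96-well plates receive the compound at five concentrations for 48 hours. Endpoints are linearly interpolated between the surrounding concentrations. Definition used: TGI = concentration required for complete inhibition of growth.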

Legend:
Assay in all cases: NCI tumour cell line growth inhibition, 48 h
RXF 393 renal = system: RXF 393 renal
LOX IMVI melanoma = system: LOX IMVI melanoma
HT29 colon = system: HT29 colon
ACHN renal = system: ACHN renal
NCI-H460 lung = system: NCI-H460 lung
HOP-62 NSCLC = system: HOP-62 NSCLC
SF-539 CNS = system: SF-539 CNS
NCI-H522 lung = system: NCI-H522 lung
MDA-N = system: MDA-N
OVCAR-5 ovarian = system: OVCAR-5 ovarian
KM12 colon = system: KM12 colon
BT-549 breast = system: BT-549 breast
PC-3 prostate = system: PC-3 prostate
SF-295 CNS = system: SF-295 CNS
NCI/ADR-RES ovarian = system: NCI/ADR-RES ovarian

## COC(=O)/C=C1/OC(c2ccccc2)=C(Br)C1=O
RXF 393 renal
  TGI: > 100 µM
LOX IMVI melanoma
  TGI: 43.3 µM
HT29 colon
  TGI: 50.6 µM
ACHN renal
  TGI: > 100 µM
NCI-H460 lung
  TGI: > 100 µM
HOP-62 NSCLC
  TGI: > 100 µM
SF-539 CNS
  TGI: > 100 µM
NCI-H522 lung
  TGI: 62.2 µM
MDA-N
  TGI: > 100 µM
OVCAR-5 ovarian
  TGI: > 100 µM
KM12 colon
  TGI: > 100 µM
BT-549 breast
  TGI: 53.4 µM
PC-3 prostate
  TGI: > 100 µM

## CCN1C(c2ccccc2)=CC(c2ccccc2)(C(Cl)(Cl)Cl)C=C1c1ccccc1
RXF 393 renal
  TGI: 72.2 µM
LOX IMVI melanoma
  TGI: 56.7 µM
HT29 colon
  TGI: 21.8 µM
ACHN renal
  TGI: > 100 µM
SF-295 CNS
  TGI: > 100 µM
NCI-H460 lung
  TGI: 23.3 µM
HOP-62 NSCLC
  TGI: > 100 µM
SF-539 CNS
  TGI: 37 µM
NCI-H522 lung
  TGI: > 100 µM
MDA-N
  TGI: > 100 µM
OVCAR-5 ovarian
  TGI: 79 µM
KM12 colon
  TGI: 16.2 µM
PC-3 prostate
  TGI: > 100 µM
NCI/ADR-RES ovarian
  TGI: > 100 µM

## O=C(O)C(Cc1ccc(O)cc1)N=Cc1nc(-c2ccccc2)oc1O (stereo not given)
RXF 393 renal
  TGI: > 100 µM
LOX IMVI melanoma
  TGI: > 100 µM
HT29 colon
  TGI: > 100 µM
ACHN renal
  TGI: > 100 µM
SF-295 CNS
  TGI: > 100 µM
NCI-H460 lung
  TGI: > 100 µM
HOP-62 NSCLC
  TGI: > 100 µM
SF-539 CNS
  TGI: > 100 µM
NCI-H522 lung
  TGI: > 100 µM
OVCAR-5 ovarian
  TGI: > 100 µM
KM12 colon
  TGI: > 100 µM

## CC(=O)/C=C1/C(=O)C(CC(C)C)=C1CC(C)C
RXF 393 renal
  TGI: > 100 µM
LOX IMVI melanoma
  TGI: > 100 µM
HT29 colon
  TGI: > 100 µM
ACHN renal
  TGI: > 100 µM
SF-295 CNS
  TGI: > 100 µM
HOP-62 NSCLC
  TGI: > 100 µM
SF-539 CNS
  TGI: > 100 µM
NCI-H522 lung
  TGI: > 100 µM
MDA-N
  TGI: > 100 µM
OVCAR-5 ovarian
  TGI: > 100 µM
KM12 colon
  TGI: > 100 µM
PC-3 prostate
  TGI: > 100 µM
NCI/ADR-RES ovarian
  TGI: > 100 µM

## COc1cc(Br)c(/C=N/N=C(\N)NO)cc1OC
RXF 393 renal
  TGI: 54.4 µM
LOX IMVI melanoma
  TGI: 61.2 µM
HT29 colon
  TGI: 86.3 µM
ACHN renal
  TGI: 50.6 µM
SF-295 CNS
  TGI: > 100 µM
NCI-H460 lung
  TGI: 27.2 µM
HOP-62 NSCLC
  TGI: 70.3 µM
SF-539 CNS
  TGI: 58.7 µM
NCI-H522 lung
  TGI: 37.5 µM
OVCAR-5 ovarian
  TGI: > 100 µM
KM12 colon
  TGI: > 100 µM

## CC(=O)O[C@H]1[C@@H](N2CCCCC2)C[C@H]2[C@@H]3CC=C4C[C@@H](N5CCCC5)CC[C@]4(C)[C@H]3CC[C@@]21C
RXF 393 renal
  TGI: > 100 µM
LOX IMVI melanoma
  TGI: > 100 µM
HT29 colon
  TGI: > 100 µM
ACHN renal
  TGI: > 100 µM
SF-295 CNS
  TGI: > 100 µM
NCI-H460 lung
  TGI: > 100 µM
HOP-62 NSCLC
  TGI: > 100 µM
SF-539 CNS
  TGI: 34.5 µM
NCI-H522 lung
  TGI: > 100 µM
OVCAR-5 ovarian
  TGI: > 100 µM
KM12 colon
  TGI: > 100 µM
BT-549 breast
  TGI: > 100 µM
PC-3 prostate
  TGI: > 100 µM
NCI/ADR-RES ovarian
  TGI: > 100 µM

## Nc1ccc(C(=O)NN2C(=O)C(Cl)C2c2ccc(O)cc2)cc1 (stereo not given)
LOX IMVI melanoma
  TGI: 22.7 µM
HT29 colon
  TGI: 45.1 µM
ACHN renal
  TGI: > 100 µM
SF-295 CNS
  TGI: > 100 µM
NCI-H460 lung
  TGI: 54.8 µM
HOP-62 NSCLC
  TGI: 38.4 µM
SF-539 CNS
  TGI: 34.3 µM
NCI-H522 lung
  TGI: 24.4 µM
OVCAR-5 ovarian
  TGI: 46.6 µM
KM12 colon
  TGI: 47.2 µM

## CC1(C)COC(c2cccc(C(=O)c3ccccc3)c2)=N1
LOX IMVI melanoma
  TGI: > 100 µM
HT29 colon
  TGI: > 100 µM
ACHN renal
  TGI: > 100 µM
SF-295 CNS
  TGI: > 100 µM
NCI-H460 lung
  TGI: > 100 µM
HOP-62 NSCLC
  TGI: > 100 µM
NCI-H522 lung
  TGI: 88.1 µM
MDA-N
  TGI: > 100 µM
OVCAR-5 ovarian
  TGI: > 100 µM
KM12 colon
  TGI: > 100 µM
PC-3 prostate
  TGI: > 100 µM
NCI/ADR-RES ovarian
  TGI: > 100 µM

## O=C(O)c1cc(-c2ccc3cc(O)c(O)cc3c2)ccc1O
HT29 colon
  TGI: > 12.5 µM
ACHN renal
  TGI: > 12.5 µM
SF-295 CNS
  TGI: > 12.5 µM
NCI-H460 lung
  TGI: > 12.5 µM
HOP-62 NSCLC
  TGI: > 12.5 µM
SF-539 CNS
  TGI: > 12.5 µM
NCI-H522 lung
  TGI: > 12.5 µM
MDA-N
  TGI: > 12.5 µM
OVCAR-5 ovarian
  TGI: > 12.5 µM
KM12 colon
  TGI: > 12.5 µM
BT-549 breast
  TGI: > 12.5 µM
PC-3 prostate
  TGI: > 12.5 µM
NCI/ADR-RES ovarian
  TGI: > 12.5 µM

## COC(=O)c1c(C)c2c(c(C)c1O)OC(=O)c1c(C)cc(O)c(C=O)c1O2
RXF 393 renal
  TGI: > 100 µM
HT29 colon
  TGI: > 100 µM
ACHN renal
  TGI: > 100 µM
SF-295 CNS
  TGI: > 100 µM
NCI-H460 lung
  TGI: > 100 µM
HOP-62 NSCLC
  TGI: > 100 µM
SF-539 CNS
  TGI: > 100 µM
NCI-H522 lung
  TGI: > 100 µM
MDA-N
  TGI: > 100 µM
OVCAR-5 ovarian
  TGI: > 100 µM
KM12 colon
  TGI: > 100 µM
BT-549 breast
  TGI: > 100 µM
PC-3 prostate
  TGI: > 100 µM
NCI/ADR-RES ovarian
  TGI: > 100 µM

## O=C1CSc2ccnc(=O)n21
RXF 393 renal
  TGI: > 100 µM
ACHN renal
  TGI: > 100 µM
NCI-H460 lung
  TGI: > 100 µM
HOP-62 NSCLC
  TGI: > 100 µM
SF-539 CNS
  TGI: > 100 µM
NCI-H522 lung
  TGI: > 100 µM
MDA-N
  TGI: > 100 µM
OVCAR-5 ovarian
  TGI: > 100 µM
BT-549 breast
  TGI: > 100 µM
PC-3 prostate
  TGI: > 100 µM

## COc1ccccc1NC(=S)Nc1ccccn1
RXF 393 renal
  TGI: > 100 µM
LOX IMVI melanoma
  TGI: > 100 µM
HT29 colon
  TGI: > 100 µM
SF-295 CNS
  TGI: > 100 µM
NCI-H460 lung
  TGI: > 100 µM
HOP-62 NSCLC
  TGI: > 100 µM
SF-539 CNS
  TGI: > 100 µM
NCI-H522 lung
  TGI: > 100 µM
OVCAR-5 ovarian
  TGI: > 100 µM
KM12 colon
  TGI: > 100 µM
BT-549 breast
  TGI: > 100 µM
PC-3 prostate
  TGI: > 100 µM
NCI/ADR-RES ovarian
  TGI: > 100 µM

## C=Cc1c(-c2ccccc2)cnc2[nH]c3ccccc3c12
RXF 393 renal
  TGI: > 50 µM
LOX IMVI melanoma
  TGI: > 50 µM
HT29 colon
  TGI: > 50 µM
ACHN renal
  TGI: > 50 µM
SF-295 CNS
  TGI: > 50 µM
NCI-H460 lung
  TGI: > 50 µM
HOP-62 NSCLC
  TGI: > 50 µM
NCI-H522 lung
  TGI: > 50 µM
OVCAR-5 ovarian
  TGI: > 50 µM
KM12 colon
  TGI: > 50 µM

## CCc1n[nH]c(=O)n1N
LOX IMVI melanoma
  TGI: > 100 µM
HT29 colon
  TGI: > 100 µM
ACHN renal
  TGI: > 100 µM
SF-295 CNS
  TGI: > 100 µM
NCI-H460 lung
  TGI: > 100 µM
HOP-62 NSCLC
  TGI: > 100 µM
SF-539 CNS
  TGI: > 100 µM
NCI-H522 lung
  TGI: > 100 µM
OVCAR-5 ovarian
  TGI: > 100 µM
KM12 colon
  TGI: > 100 µM
BT-549 breast
  TGI: > 100 µM
PC-3 prostate
  TGI: > 100 µM
NCI/ADR-RES ovarian
  TGI: > 100 µM

## COc1cc2c(c(OC)c1OC)[C@@H]1CCCCC[C@@H]1CCC2=O
RXF 393 renal
  TGI: > 100 µM
LOX IMVI melanoma
  TGI: 38.9 µM
HT29 colon
  TGI: > 100 µM
ACHN renal
  TGI: > 100 µM
SF-295 CNS
  TGI: > 100 µM
NCI-H460 lung
  TGI: > 100 µM
HOP-62 NSCLC
  TGI: > 100 µM
SF-539 CNS
  TGI: > 100 µM
NCI-H522 lung
  TGI: > 100 µM
OVCAR-5 ovarian
  TGI: > 100 µM
KM12 colon
  TGI: > 100 µM

## CCOC(=O)C1Cc2ccc(C)cc2C1=O (stereo not given)
LOX IMVI melanoma
  TGI: > 100 µM
HT29 colon
  TGI: > 100 µM
ACHN renal
  TGI: > 100 µM
SF-295 CNS
  TGI: > 100 µM
NCI-H460 lung
  TGI: > 100 µM
HOP-62 NSCLC
  TGI: > 100 µM
SF-539 CNS
  TGI: > 100 µM
MDA-N
  TGI: > 100 µM
OVCAR-5 ovarian
  TGI: > 100 µM
KM12 colon
  TGI: > 100 µM
PC-3 prostate
  TGI: > 100 µM
NCI/ADR-RES ovarian
  TGI: > 100 µM

## CCC(=O)NC(NNS(=O)(=O)c1ccc(C)cc1)(C(F)(F)F)C(F)(F)F
RXF 393 renal
  TGI: 82.9 µM
LOX IMVI melanoma
  TGI: > 100 µM
ACHN renal
  TGI: > 100 µM
SF-295 CNS
  TGI: > 100 µM
NCI-H460 lung
  TGI: > 100 µM
HOP-62 NSCLC
  TGI: > 100 µM
SF-539 CNS
  TGI: > 100 µM
NCI-H522 lung
  TGI: 62.4 µM
MDA-N
  TGI: 54.3 µM
OVCAR-5 ovarian
  TGI: > 100 µM
KM12 colon
  TGI: > 100 µM
BT-549 breast
  TGI: 91.8 µM
PC-3 prostate
  TGI: > 100 µM
NCI/ADR-RES ovarian
  TGI: 85.2 µM

## N=c1oc2ccccc2cc1C(=O)Nc1ccccn1
RXF 393 renal
  TGI: > 100 µM
LOX IMVI melanoma
  TGI: > 100 µM
HT29 colon
  TGI: > 100 µM
ACHN renal
  TGI: > 100 µM
NCI-H460 lung
  TGI: > 100 µM
HOP-62 NSCLC
  TGI: > 100 µM
SF-539 CNS
  TGI: > 100 µM
MDA-N
  TGI: > 100 µM
OVCAR-5 ovarian
  TGI: > 100 µM
KM12 colon
  TGI: > 100 µM
BT-549 breast
  TGI: > 100 µM
NCI/ADR-RES ovarian
  TGI: > 100 µM
